Usually EC50 stands for the concentration needed to bring the measured effect to its halfway point. Read a high EC50 as weaker potency.

Where only a bound is given, the exact number is not on record here.

Assay [1] has as its system HMPV clinical isolate A2 strain TN 94-49. Put plainly: HMPV antiviral assay, Method 1 (LLC-MK2 cells, ATP-Lite). The assay is classed as cell-based. Conditions: human metapneumovirus, hMPV A2 TN/94-49, LLC-MK2 cells. Put shortly: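 LLC-MK2 cells (5,000/well) infected in suspension with HMPV A2 TN 94-49 at MOI 0.005 in serum-free OptiMEM with 2 μg/mL final TPCK-trypsin, compounds in duplicate from 2 μM top, 2.5-fold, 10 points. After 7 days at 37° C, cell health by ATP-Lite luminescence normalised to virus and cell controls; EC50 from four-parameter fit.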

In assay [2] the test system is genotype A, “Long” strain RSV. The assay can be described thus: RSV-A assay (CPE, ATPlite readout in Hep-2 cells). The assay is classed as cell-based, Human respiratory syncytial virus. As to conditions: human respiratory syncytial virus, activity class. In outline:
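In this cytopathic-effect protection format, infected Hep-2 cultures (MOI 0.1) are exposed to compound for 5 days. Surviving cell ATP is quantified with ATPlite, and EC50 is determined.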
For orientation: ATP-based viability assays read luminescence as a measure of living cells.

Assay [3] concerns HMPV clinical isolate A2 strain TN 94-49. The assay can be described thus: HMPV antiviral assay, Method 2 (LLC-MK2 cells with CP-100-356, ATP-Lite). It counts as cell-based. As to conditions: human metapneumovirus. Put shortly:
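LLC-MK2 rhesus kidney cells (5,000/well) infected in suspension with HMPV A2 TN 94-49 at MOI 0.16, in serum-free medium with final 2 μg/mL TPCK-trypsin and 2 μM CP-100-356. Compounds tested in duplicate from 200 nM, 2.5-fold, 10 points; 7 days at 37 °C. Cell health by ATP-Lite luminescence; EC50 by four-parameter fit.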

Assay [4] concerns HRSV. Conditions: prophylactic use, high risk infants; cited from earlier work.
The mark [5] stands for this setting: hMPV A2 TN/94-49, LLC-MK2 cells with CP-100-356, Method 2.
Setting [6] is: 168 h, hMPV A2 TN/94-49, LLC-MK2 cells with 4 μM CP-100-356, 7 days, ATP-Lite.

Turning to `COc1cc(C(=O)NC[C@](O)(c2cc3c(c(-c4ccc5c(c4Cl)OC(F)(F)O5)n2)OC[C@]3(C)C(N)=O)C2CC2)cc2cn(C(F)F)nc12` [Example 457], the figures for the concentration giving a half-maximal response (EC50) in assay [1], in assay [2] and in assay [3] (setting [5]) were less than 500 nM, less than 200 nM and less than 200 nM, respectively.

Consider `C[C@]1(C(N)=O)COc2c1cc([C@@](O)(CNC(=O)c1ccc3nc(N)sc3c1)C1CC1)nc2-c1cc(F)c(F)cc1F` [Example 73], for which the values for the EC50 in assay [1] and in assay [2] were greater than 500 nM and less than 200 nM, respectively.

`Cc1nc2c(OC3CC3)cc(C(=O)NC[C@](O)(c3cc4c(c(-c5cc(Cl)c(F)cc5F)n3)OC[C@]4(C)C(N)=O)C3CC3)cc2s1` [Example 76]: the EC50 was less than 500 nM in assay [1] and less than 200 nM in assay [2].

`COc1cc(C(=O)NC[C@](O)(c2cc3c(c(-c4cc(Cl)c(F)cc4F)n2)OC[C@]3(C)C(N)=O)C2(CO)CC2)cc2cn(C3CC3)nc12` [Example 245]: the EC50 is greater than 500 nM in assay [1] and less than 200 nM in assay [2].

For `C[C@]1(C(N)=O)COc2c1cc([C@@](O)(CNC(=O)c1cc(OC3CC3)c3nn(C4CC4)cc3c1)C1CC(F)(F)C1)nc2-c1cc(F)c(F)cc1F` [Example 32], the EC50 in assay [1] is less than 500 nM; in assay [2], less than 200 nM.

In the case of `Cc1nc2ccc(C(=O)NC[C@](O)(c3cc4c(c(-c5cc(Cl)c(F)cc5F)n3)OC[C@]4(C)C(N)=O)C3CC3)cc2s1` [Example 74], the EC50 was less than 500 nM in assay [1] and less than 200 nM in assay [2].

As for `COc1cc(C(=O)NC[C@](O)(c2cc3c(c(-c4ccc5c(c4C)OC(F)(F)O5)n2)OC[C@]3(C)C(N)=O)C2CC2)cc2cn(C3CC3)nc12` [Example 392], the EC50 in assay [1] is less than 500 nM; in assay [2], less than 200 nM.

Consider `COc1cc(C(=O)NC[C@](O)(c2cc3c(c(-c4cc(Cl)c(F)cc4F)n2)OC[C@]3(C)C(N)=O)[C@@H]2CC2(F)F)cc2cn(C3CC3)nc12` [Example 151], for which the concentration for a half-maximal effect (EC50) was less than 500 nM in assay [1] and less than 200 nM in assay [2].

In the case of `COc1cc(C(=O)NC[C@@](O)(c2ccc(F)cc2)c2cc3c(c(-c4ccc5c(c4Cl)OC(F)(F)O5)n2)OC[C@]3(C)C(N)=O)cc2cn(C3CC3)nc12` [Example 25], the results for the EC50 in assay [1] and in assay [2] were less than 500 nM and less than 200 nM, respectively.

As for `COc1cc(C(=O)NC[C@](O)(c2cc3c(c(-c4ccc5c(c4Cl)OC(F)(F)O5)n2)OC[C@]3(C)C(N)=O)C2CC2)cc2cn(C3(F)CC3)nc12` [Example 128], the EC50 in assay [1] was less than 500 nM; in assay [2], less than 200 nM.

Consider `COc1cccc([C@](O)(CNC(=O)c2cc(OC)c3nn(C4(F)CC4)cc3c2)c2cc3c(c(-c4cc(Cl)c(F)cc4F)n2)OC[C@]3(C)C(N)=O)c1` [Example 162], for which the figures for the EC50 in assay [1], in assay [2] and in assay [3] (setting [5]) were less than 500 nM, less than 200 nM and less than 200 nM, respectively.

As to `C[C@]1(C(N)=O)COc2c1cc([C@@](O)(CNC(=O)c1cc(O)c3nn(C4CC4)cc3c1)C1CC1)nc2-c1cc(F)c(F)cc1F` [Example 360], the EC50 is greater than 500 nM in assay [1], less than 200 nM in assay [2] and less than 200 nM in assay [3] (setting [5]).

On to “Palivizumab: "a monoclonal antibody that is approved for prophylactic use, but its use is limited due to its high price"”, for which the “effective in reducing hospitalizations” value in assay [4] is given as 60%.

As for `[2H]c1nc2c(OC(F)F)cc(C(=O)NC[C@](O)(c3cc4c(c(-c5cc(Cl)c(F)cc5F)n3)OC[C@]4(C)C(N)=O)C3CC3)cc2cc1C([2H])([2H])[2H]` [Example 218], the values for the EC50 in assay [1], in assay [2] and in assay [3] (setting [5]) were less than 500 nM, less than 200 nM and less than 200 nM, respectively.

`[2H]C([2H])([2H])c1nc2ccc(C(=O)NC[C@](O)(c3cc4c(c(-c5cc(F)c(F)cc5F)n3)OC[C@]4(C)C(N)=O)C3CC3)cc2o1` [Example 92]: the EC50 in assay [1] was less than 500 nM; in assay [2], less than 200 nM.

`COc1cc(C(=O)NC[C@](O)(c2cc3c(c(-c4ccc(F)c(Cl)c4C)n2)OC[C@]3(C)C(N)=O)C2CC2)cc2cn(C3CC3)nc12` [Example 391]: the values for the EC50 in assay [1] and in assay [2] were less than 500 nM and less than 200 nM, respectively.

Consider `C[C@]1(C(N)=O)COc2c1cc([C@@](O)(CNC(=O)c1cc(OC3CC3)c3nn(C(F)F)cc3c1)C1CC1)nc2-c1ccc2c(c1Cl)OC(F)(F)O2` [Example 129], for which the values for the EC50 in assay [1], in assay [2] and in assay [3] (setting [5]) were less than 500 nM, less than 200 nM and less than 200 nM, respectively.

As for `C=C(CNC(=O)c1cc(OC)c2nn(C3CC3)cc2c1)c1cc2c(c(-c3cc(Cl)c(F)cc3F)n1)OC[C@]2(C)C(N)=O` [Example 214], the EC50 in assay [1] was greater than 500 nM; in assay [2], less than 200 nM.

`COc1cc(C(=O)NC[C@](O)(c2cc3c(c(-c4cc(C)c(F)cc4F)n2)OC[C@]3(C)C(N)=O)C2CC2)cc2cn(C3CC3)nc12` [Example 385]: the EC50 in assay [1] is less than 500 nM; in assay [2], less than 200 nM; in assay [3] (setting [5]) it was less than 200 nM.

As for `[2H]C([2H])([2H])C1=NC2C(OC)=CC(C(=O)NC[C@](O)(c3cc4c(c(-c5ccc6c(c5Cl)OC(F)(F)O6)n3)OC[C@]4(C)C(N)=O)C3CC3)=CC2S1` (stereo partly shown) [Example 127], the EC50 is less than 500 nM in assay [1] and less than 200 nM in assay [2].

On to `COc1cccc([C@](O)(CNC(=O)c2cc(OC)c3nn(C(F)F)cc3c2)c2cc3c(c(-c4cc(Cl)c(F)cc4F)n2)OC[C@]3(C)C(N)=O)c1` [Example 161], for which the EC50 in assay [1] is less than 500 nM; in assay [2], less than 200 nM.

Turning to `COc1cc(C(=O)NC[C@](O)(c2cc3c(c(-c4cc(C(F)F)c(F)cc4F)n2)OC[C@]3(C)C(N)=O)C2CC2)cc2cn(C3CC3)nc12` [Example 393], the values for the EC50 in assay [1], in assay [2] and in assay [3] (setting [5]) were less than 500 nM, less than 200 nM and less than 200 nM, respectively.

`COc1cc(C(=O)NC[C@](O)(c2cc3c(c(-c4cc(C(F)(F)F)c(F)cc4F)n2)OC[C@]3(C)C(N)=O)C2CC2)cc2cn(C3CC3)nc12` [Example 394]: the EC50 in assay [1] was less than 500 nM; in assay [2], less than 200 nM; in assay [3] (setting [5]) it was less than 200 nM.

For `[2H]C([2H])([2H])c1nc2ccc(C(=O)NC[C@](O)(c3cc4c(c(-c5cc(Cl)c(F)cc5F)n3)OC[C@]4(C)C(N)=O)C3CC3)cc2o1` [Example 91], the EC50 in assay [1] was less than 500 nM; in assay [2] it was less than 200 nM.

In the case of `Cc1nc2ccc(C(=O)NC[C@](O)(c3cc4c(c(-c5cc(Cl)c(F)cc5F)n3)OC[C@]4(C)C(N)=O)C3CC3)cc2o1` [Example 75], the figures for the EC50 in assay [1] and in assay [2] were less than 500 nM and less than 200 nM, respectively.

Consider `COc1cc(C(=O)NC[C@](O)(c2cc3c(c(-c4ccc5c(c4)OC(F)(F)O5)n2)OC[C@]3(C)C(N)=O)C2CC2)cc2cc(Cl)cnc12` [Example 107], for which the EC50 in assay [2] and in assay [3] (setting [5]) was less than 200 nM each time.

As to `COc1cc(C(=O)NC[C@](O)(c2cc3c(c(-n4ccc5c(OC(F)F)cccc54)n2)OC[C@]3(C)C(N)=O)C2CC2)cc2cn(C3CC3)nc12` [Example 864], the EC50 in assay [2] and in assay [3] (setting [6]) was less than 200 nM in each case.

Turning to `COc1cc(C(=O)NC[C@](O)(c2cc3c(c(-c4ccnc(C(F)(F)F)c4F)n2)OC[C@]3(C)C(N)=O)C2CC2)cc2cn(C3CC3)nc12` [Example 794], the concentration giving a half-maximal response (EC50) in assay [2] and in assay [3] (setting [6]) was less than 200 nM in each case.

With `COc1cc(C(=O)NC[C@](O)(c2cc3c(c(-n4ncc5c(F)cccc54)n2)OC[C@]3(C)C(N)=O)C2CC2)cc2oc(C3CC3)nc12` [Example 622], the EC50 in assay [2] and in assay [3] (setting [6]) was less than 200 nM each time.

Regarding `COc1nccc(-c2nc([C@@](O)(CNC(=O)c3cc(OC)c4nn(C5(F)CC5)cc4c3)C(F)(F)F)cc3c2OC[C@]3(C)C(N)=O)c1Cl` [Example 543], the EC50 in assay [2] and in assay [3] (setting [5]) was less than 200 nM in each case.

Regarding `COc1cc(C(=O)NC[C@](O)(c2cc3c(c(-c4ccnc(C(F)(F)F)c4Cl)n2)OC[C@]3(C)C(N)=O)C(F)(F)F)cc2cn(C3(F)CC3)nc12` [Example 534], the EC50 in assay [2] and in assay [3] (setting [5]) was less than 200 nM each time.

As for `COc1cc(C(=O)NCC(O)(CC2CC2)c2cc3c(c(-c4cc(Cl)c(F)cc4F)n2)OC[C@]3(C)C(N)=O)cc2cn(C3CC3)nc12` (stereo partly shown) [Example 239], the EC50 is less than 200 nM in assay [2] and greater than 200 nM in assay [3] (setting [5]).

For `COc1cc(C(=O)NC[C@](O)(c2cc3c(c(-n4ccc5c(F)cccc54)n2)OC[C@]3(C)C(N)=O)C2(F)CC2)cn2cc(C3CC3)nc12` [Example 690], the EC50 in assay [2] and in assay [3] (setting [6]) was less than 200 nM each time.

Regarding `COc1cc(C(=O)NC[C@](O)(c2cc3c(c(-n4ccc5c(F)cccc54)n2)OC[C@]3(C)C(N)=O)C2(F)CC2)cc2cn(C3CC3)nc12` [Example 861], the EC50 in assay [2] and in assay [3] (setting [6]) was less than 200 nM each time.

On to `COc1cc(C(=O)NC[C@](O)(c2cc3c(c(-c4cc(Cl)c(F)cc4F)n2)OC[C@]3(C)C(N)=O)[C@H]2CC2(F)F)cc2cn(C3CC3)nc12` [Example 150], for which the EC50 in assay [1] was less than 500 nM; in assay [2] it was less than 200 nM.

Turning to `C[C@]1(C(N)=O)COc2c1cc([C@@](O)(CNC(=O)c1ccc3nc(C4CC4)oc3c1)C1CC1)nc2-c1ccc(F)c(Cl)c1Cl` [Example 319], the EC50 in assay [2] and in assay [3] (setting [5]) was less than 200 nM throughout.

Source of the values: patent publication US20240368174A1, “Antiviral Heterocyclic Compounds” (Enanta Pharmaceuticals, Inc., priority 2023, published 2024).
